A word on the Ki: it is the dissociation constant of the complex between target and ligand, obtained from inhibition or displacement. A high value points to lower affinity. Usually Kd stands for a measure of binding affinity in units of concentration. Low values mean higher affinity, high ones lower affinity.

The record followed here is ChEMBL document CHEMBL4190382, “Targeting lysine specific demethylase 4A (KDM4A) tandem TUDOR domain - A fragment based approach” (Bioorg Med Chem Lett, 2018).

Assay [1] addresses T1, Lysine-specific demethylase 4A (Homo sapiens, UniProt O75164).
T1 sequence (O75164 whole entry): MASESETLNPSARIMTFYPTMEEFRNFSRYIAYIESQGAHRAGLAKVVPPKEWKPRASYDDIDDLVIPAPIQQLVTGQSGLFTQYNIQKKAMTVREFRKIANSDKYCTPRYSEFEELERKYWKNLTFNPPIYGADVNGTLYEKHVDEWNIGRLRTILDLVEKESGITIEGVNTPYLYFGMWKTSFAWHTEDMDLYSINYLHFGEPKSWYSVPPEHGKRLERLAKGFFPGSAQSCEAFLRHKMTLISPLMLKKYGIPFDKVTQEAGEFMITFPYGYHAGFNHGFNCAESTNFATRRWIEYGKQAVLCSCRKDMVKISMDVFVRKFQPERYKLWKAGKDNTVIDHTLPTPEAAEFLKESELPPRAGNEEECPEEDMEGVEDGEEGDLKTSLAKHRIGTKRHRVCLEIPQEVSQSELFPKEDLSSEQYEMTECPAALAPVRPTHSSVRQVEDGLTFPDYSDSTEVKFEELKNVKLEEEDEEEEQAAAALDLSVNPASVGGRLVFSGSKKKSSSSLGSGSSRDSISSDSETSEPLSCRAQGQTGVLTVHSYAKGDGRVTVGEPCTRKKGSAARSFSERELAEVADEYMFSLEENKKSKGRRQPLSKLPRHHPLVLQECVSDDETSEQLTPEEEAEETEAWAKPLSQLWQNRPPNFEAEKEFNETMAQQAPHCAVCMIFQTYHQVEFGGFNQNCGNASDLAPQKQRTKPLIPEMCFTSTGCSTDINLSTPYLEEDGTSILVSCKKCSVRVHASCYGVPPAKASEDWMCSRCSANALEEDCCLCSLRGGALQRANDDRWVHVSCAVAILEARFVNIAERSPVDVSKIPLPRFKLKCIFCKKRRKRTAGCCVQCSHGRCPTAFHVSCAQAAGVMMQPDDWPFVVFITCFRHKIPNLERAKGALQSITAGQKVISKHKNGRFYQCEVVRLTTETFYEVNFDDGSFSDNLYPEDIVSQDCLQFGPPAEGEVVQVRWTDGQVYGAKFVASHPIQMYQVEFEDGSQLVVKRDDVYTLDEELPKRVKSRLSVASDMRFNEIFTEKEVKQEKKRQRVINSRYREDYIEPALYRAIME
The experiment in a line: Inhibition of H3(1-10)K4me3 peptide binding to thrombin cleavable N-terminal 6His tagged and 13C-IVLM labeled human KDM4A tandem TUDOR domain (897 to 1011 residues) expressed in Escherichia coli BL21(DE3)-T1R by ITC method. For orientation: In ITC the heat of successive injections is recorded.

The target of assay [2] is T2, Lysine-specific demethylase 4B (Homo sapiens, UniProt O94953).
T2 sequence (O94953 whole entry): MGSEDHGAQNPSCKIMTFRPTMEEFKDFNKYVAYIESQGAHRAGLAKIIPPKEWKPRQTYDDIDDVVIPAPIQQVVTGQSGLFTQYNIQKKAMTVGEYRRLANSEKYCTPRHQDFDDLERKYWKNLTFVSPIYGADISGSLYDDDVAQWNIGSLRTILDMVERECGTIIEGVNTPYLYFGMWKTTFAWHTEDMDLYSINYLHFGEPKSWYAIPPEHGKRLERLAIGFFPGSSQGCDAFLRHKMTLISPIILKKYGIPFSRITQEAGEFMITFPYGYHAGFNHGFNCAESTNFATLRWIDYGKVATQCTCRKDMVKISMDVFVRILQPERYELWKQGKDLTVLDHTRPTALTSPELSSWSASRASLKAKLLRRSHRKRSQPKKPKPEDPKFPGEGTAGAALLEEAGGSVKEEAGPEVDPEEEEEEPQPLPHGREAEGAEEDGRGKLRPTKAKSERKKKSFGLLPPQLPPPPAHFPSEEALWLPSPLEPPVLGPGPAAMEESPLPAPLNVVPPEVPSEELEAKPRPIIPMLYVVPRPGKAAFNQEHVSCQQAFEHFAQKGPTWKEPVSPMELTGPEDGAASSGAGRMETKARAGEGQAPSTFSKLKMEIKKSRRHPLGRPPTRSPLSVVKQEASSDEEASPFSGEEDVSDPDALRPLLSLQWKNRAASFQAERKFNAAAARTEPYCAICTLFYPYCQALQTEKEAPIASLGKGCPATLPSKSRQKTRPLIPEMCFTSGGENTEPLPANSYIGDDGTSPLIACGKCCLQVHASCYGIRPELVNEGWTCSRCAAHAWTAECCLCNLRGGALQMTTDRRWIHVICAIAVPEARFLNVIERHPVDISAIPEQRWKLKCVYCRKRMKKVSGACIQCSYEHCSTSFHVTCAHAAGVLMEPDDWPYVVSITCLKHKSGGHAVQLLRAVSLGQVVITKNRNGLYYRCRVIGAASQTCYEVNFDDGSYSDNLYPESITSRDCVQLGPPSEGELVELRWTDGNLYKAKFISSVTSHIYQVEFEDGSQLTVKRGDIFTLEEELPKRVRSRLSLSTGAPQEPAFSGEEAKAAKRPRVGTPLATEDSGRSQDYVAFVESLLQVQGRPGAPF
The experiment in a line: Binding affinity to 6His-tagged and human KDM4B tandem TUDOR domain (916 to 1030 residues) expressed in Escherichia coli BL21(DE3)-T1R by ITC method.

Assay [3] concerns the target T3, E3 ubiquitin-protein ligase UHRF1 (Homo sapiens, UniProt Q96T88).
T3 sequence (Q96T88 whole entry): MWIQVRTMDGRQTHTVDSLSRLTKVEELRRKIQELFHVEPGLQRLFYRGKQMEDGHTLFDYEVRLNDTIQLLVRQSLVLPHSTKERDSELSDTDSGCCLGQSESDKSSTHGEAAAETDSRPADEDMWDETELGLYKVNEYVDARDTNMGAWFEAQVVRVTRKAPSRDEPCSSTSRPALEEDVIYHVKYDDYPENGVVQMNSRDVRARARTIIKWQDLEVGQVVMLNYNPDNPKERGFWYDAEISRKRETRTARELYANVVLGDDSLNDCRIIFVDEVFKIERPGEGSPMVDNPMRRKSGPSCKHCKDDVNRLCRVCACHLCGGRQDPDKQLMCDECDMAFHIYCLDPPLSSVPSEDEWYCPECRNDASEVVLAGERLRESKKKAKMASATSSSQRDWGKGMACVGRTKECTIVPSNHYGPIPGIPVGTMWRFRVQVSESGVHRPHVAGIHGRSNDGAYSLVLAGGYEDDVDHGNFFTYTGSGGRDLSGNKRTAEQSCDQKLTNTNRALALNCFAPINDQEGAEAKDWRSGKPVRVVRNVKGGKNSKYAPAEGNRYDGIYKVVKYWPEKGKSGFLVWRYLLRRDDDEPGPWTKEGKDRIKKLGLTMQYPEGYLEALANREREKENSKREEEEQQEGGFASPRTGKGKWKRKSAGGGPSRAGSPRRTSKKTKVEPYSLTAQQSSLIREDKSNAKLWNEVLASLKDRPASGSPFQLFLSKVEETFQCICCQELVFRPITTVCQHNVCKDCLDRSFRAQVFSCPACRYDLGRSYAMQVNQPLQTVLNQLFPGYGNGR
The experiment in a line: Binding affinity to 6His-tagged and human UHRF1 tandem TUDOR domain (126 to 285 residues) expressed in Escherichia coli BL21(DE3)-T1R by ITC method.

In turn, `CN(C)C[C@H]1C2CCC(c3ccccc3)(C2)[C@H]1O` (stereo partly drawn) gave a Ki in assay [1] of 170 µM. Also, the values for the Kd in assay [2] and in assay [3] were 127 µM and “Not Active”, respectively.
